Some test systems named below: UO-31 renal; IGROV1 ovarian; SNB-75 CNS; RPMI-8226 leukemia; UACC-257 melanoma; A498 renal; HOP-62 NSCLC.
Assay in all cases: inhibition of tumour cell growth, NCI panel, 48 h

Structures are written as SMILES. Values joined by “and” are separate entries in the source; they are usually repeats but may differ in a detail not shown here. Equal values may be shown once.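 Compound exposure: 48 hours, 5 concentrations, 96-well plates. GI50 = concentration required for 50% inhibition of growth. TGI denotes the concentration required for complete inhibition of growth.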

Turning to `Clc1cc(-c2csc(Cl)c2)cs1`, the TGI with UO-31 renal, with IGROV1 ovarian, with SNB-75 CNS, in the experiment with RPMI-8226 leukemia, with UACC-257 melanoma and with A498 renal was over 100 µM in each case.

Regarding `COc1cc(C2CC(c3cc(Cl)c(C)cc3O)=NN2c2ccc(S(N)(=O)=O)cc2)cc(OC)c1OC` (configuration not stated), the GI50 in the experiment on HOP-62 NSCLC is 2.1 µM; with UO-31 renal, 2.19 µM; in the experiment with IGROV1 ovarian, 2.23 µM; in the experiment with SNB-75 CNS, 2.45 µM; in the experiment with RPMI-8226 leukemia, 2.66 µM; with UACC-257 melanoma, 4.13 µM. Further, the GI50 in the experiment on A498 renal was 4.15 µM. For the same compound, the TGI with HOP-62 NSCLC was found to be 4.56 µM; in the experiment on UO-31 renal, 28.9 µM; in the experiment on IGROV1 ovarian, 5.54 µM; with SNB-75 CNS it was 28.3 µM; in the experiment with RPMI-8226 leukemia, 14.8 µM; with UACC-257 melanoma it was 15.2 µM. Also, in the experiment with A498 renal, the TGI was 15.3 µM.

With `C[C@@H]1CC[C@H]2C(CN(C)CC3=C(C(F)(F)F)O[C@@H]4O[C@@]5(C)CC[C@H]6[C@H](C)CC[C@@H]3[C@@]46OO5)=C(C(F)(F)F)O[C@@H]3O[C@@]4(C)CC[C@@H]1[C@]32OO4`, the GI50 in the experiment on HOP-62 NSCLC is 34.4 µM; in the experiment on UO-31 renal, 2.86 µM; in the experiment with IGROV1 ovarian it was 2.3 µM; in the experiment with RPMI-8226 leukemia it was 0.82 µM; with UACC-257 melanoma, 1.9 µM; with A498 renal it was 3.92 µM. The TGI with HOP-62 NSCLC was over 100 µM; in the experiment with IGROV1 ovarian, over 23.9 µM; in the experiment on SNB-75 CNS it was over 23.9 µM; with RPMI-8226 leukemia, over 49.6 µM; with UACC-257 melanoma, over 51.1 µM; with A498 renal, over 100 µM.

As for `Clc1ccc2c(NCCNc3nc(Cl)nc4ccccc34)ccnc2c1`, the GI50 with HOP-62 NSCLC is 0.56 µM; with UO-31 renal, 1.5 µM; in the experiment with IGROV1 ovarian it was 1.13 µM; with SNB-75 CNS, 1.64 µM; in the experiment with RPMI-8226 leukemia, 0.279 µM; in the experiment with UACC-257 melanoma, 1.89 µM. In the experiment on A498 renal, the GI50 was 1.87 µM. In addition, the TGI in the experiment on HOP-62 NSCLC was 2.09 µM; in the experiment with UO-31 renal, 2.94 µM; in the experiment on IGROV1 ovarian, 2.7 µM; in the experiment with SNB-75 CNS it was 3.16 µM; in the experiment on RPMI-8226 leukemia it was 0.769 µM; in the experiment on UACC-257 melanoma, 3.54 µM. Besides, the TGI in the experiment with A498 renal is 3.52 µM.

Take `COc1cc2cc(C(=O)N3C[C@H](CCl)c4c3cc(O)c3ccccc43)[nH]c2c(OC)c1OC`: the GI50 with HOP-62 NSCLC is 0.0157 µM; with RPMI-8226 leukemia, under 0.01 µM; in the experiment with UACC-257 melanoma, 0.135 µM and 0.0459 µM. The TGI with HOP-62 NSCLC was 0.198 µM and 1.06 µM; in the experiment with UO-31 renal, 0.543 µM; in the experiment on SNB-75 CNS, 0.449 µM; in the experiment with A498 renal, 0.684 µM.

In the case of `O=C1c2ccccc2-c2c1c1ccccc1c(=O)n2CCCNCCO`, the GI50 in the experiment on HOP-62 NSCLC was 0.317 µM; in the experiment with UO-31 renal it was 0.303 µM; in the experiment on IGROV1 ovarian, 0.501 µM; in the experiment on SNB-75 CNS, 1.43 µM; in the experiment with RPMI-8226 leukemia, 0.241 µM; with UACC-257 melanoma it was 1.25 µM. The TGI was 2.61 µM in the experiment on HOP-62 NSCLC; 2.06 µM with UO-31 renal; 3.76 µM in the experiment with IGROV1 ovarian; 5.68 µM with SNB-75 CNS; 1.76 µM in the experiment with RPMI-8226 leukemia; 4.39 µM with UACC-257 melanoma. Also, the TGI in the experiment on A498 renal worked out at 1.28 µM.

As to `Cc1cccc(Cc2cnc(NC(=O)/C=C/c3ccco3)s2)c1`, the GI50 was 0.0535 µM in the experiment on HOP-62 NSCLC; 0.0847 µM in the experiment with UO-31 renal; 0.0712 µM in the experiment on IGROV1 ovarian; 0.0403 µM in the experiment on RPMI-8226 leukemia; over 100 µM with UACC-257 melanoma; 0.199 µM with A498 renal. The TGI in the experiment on HOP-62 NSCLC was over 100 µM; with UO-31 renal it was over 100 µM; in the experiment on IGROV1 ovarian it was over 100 µM; in the experiment with RPMI-8226 leukemia it was over 100 µM; in the experiment with UACC-257 melanoma, over 100 µM; with A498 renal, 3.93 µM.

In the case of `CCN(CC)Cc1cc(Nc2c3ccc(Cl)cc3nc3c(C)cccc23)ccc1O`, the GI50 was 1.65 µM in the experiment with HOP-62 NSCLC; 1.06 µM in the experiment with UO-31 renal; 0.56 µM with IGROV1 ovarian; 1.5 µM with SNB-75 CNS; 1.99 µM with UACC-257 melanoma; 1.05 µM with A498 renal. In addition, the TGI in the experiment on HOP-62 NSCLC is 3.26 µM; with UO-31 renal, 2.27 µM; in the experiment with IGROV1 ovarian, 1.78 µM; with SNB-75 CNS it was 2.84 µM; in the experiment on UACC-257 melanoma, 3.62 µM; in the experiment with A498 renal, 3 µM.

As for `O=C(N/N=C\c1cc(Br)cc(Br)c1O)N/N=C/c1cc(Br)cc(Br)c1O`, the GI50 was 8.99 µM with HOP-62 NSCLC; 1.8 µM in the experiment with UO-31 renal; 1.11 µM in the experiment with SNB-75 CNS; 2.72 µM in the experiment on RPMI-8226 leukemia; 2.48 µM in the experiment on UACC-257 melanoma; 7.81 µM in the experiment on A498 renal. Also, the TGI with HOP-62 NSCLC was 22.8 µM; with UO-31 renal, 8.7 µM; with SNB-75 CNS it was 15.6 µM; with RPMI-8226 leukemia, 10.6 µM; with UACC-257 melanoma it was 8.92 µM; with A498 renal, 22.8 µM.

As for `Cc1c(-c2ccnc(N)n2)c2c(n1-c1ccccc1)C(=O)c1ccccc1C2=O`, the GI50 in the experiment with HOP-62 NSCLC was 6.61 µM; in the experiment on UO-31 renal it was 13.5 µM; in the experiment on IGROV1 ovarian, 4.86 µM; in the experiment on SNB-75 CNS, 30 µM; in the experiment with RPMI-8226 leukemia, over 100 µM; with UACC-257 melanoma, 34.2 µM. Besides, the TGI with HOP-62 NSCLC was 37.6 µM; in the experiment with UO-31 renal, 51.1 µM; in the experiment with IGROV1 ovarian, 39 µM; in the experiment on SNB-75 CNS, over 100 µM; with RPMI-8226 leukemia it was over 100 µM; with UACC-257 melanoma, 91.9 µM.

For `CC1CCCc2c(CC3CC(=O)NC(=O)C3)nc(N)nc21` (configuration not stated), the TGI with HOP-62 NSCLC, with IGROV1 ovarian, in the experiment with SNB-75 CNS, with RPMI-8226 leukemia, in the experiment with UACC-257 melanoma and with A498 renal was over 100 µM each time.

In the case of `COC(=O)C1=C(C)NC(C)=C(C(=O)OC)C1c1ccccc1[N+](=O)[O-]`, the GI50 was over 100 µM in the experiment with HOP-62 NSCLC; 50 µM in the experiment with UO-31 renal; 57.2 µM in the experiment on IGROV1 ovarian; 27 µM in the experiment with SNB-75 CNS; 47.6 µM with RPMI-8226 leukemia; 11.3 µM with A498 renal. For the same compound, the TGI with HOP-62 NSCLC was over 100 µM; in the experiment with UO-31 renal it was over 100 µM; in the experiment on IGROV1 ovarian, over 100 µM; in the experiment on SNB-75 CNS, over 100 µM; with RPMI-8226 leukemia, over 100 µM; with A498 renal, 56.3 µM.
